Experimental data from patent publication US9757378B2, “Methods to modulate acute myeloid leukemia stem/progenitor cell expansion and/or differentiation” (UNIVERSITE DE MONTREAL, priority 2013, dated 2017).
“Also recorded” adds a separate entry of the source.

How the values were obtained:
human AHR = biological target: T1, human AHR (Homo sapiens, UniProt P35869); conditions: Mezrich et al. 2012; cited from earlier work
T1 sequence (P35869 11-848): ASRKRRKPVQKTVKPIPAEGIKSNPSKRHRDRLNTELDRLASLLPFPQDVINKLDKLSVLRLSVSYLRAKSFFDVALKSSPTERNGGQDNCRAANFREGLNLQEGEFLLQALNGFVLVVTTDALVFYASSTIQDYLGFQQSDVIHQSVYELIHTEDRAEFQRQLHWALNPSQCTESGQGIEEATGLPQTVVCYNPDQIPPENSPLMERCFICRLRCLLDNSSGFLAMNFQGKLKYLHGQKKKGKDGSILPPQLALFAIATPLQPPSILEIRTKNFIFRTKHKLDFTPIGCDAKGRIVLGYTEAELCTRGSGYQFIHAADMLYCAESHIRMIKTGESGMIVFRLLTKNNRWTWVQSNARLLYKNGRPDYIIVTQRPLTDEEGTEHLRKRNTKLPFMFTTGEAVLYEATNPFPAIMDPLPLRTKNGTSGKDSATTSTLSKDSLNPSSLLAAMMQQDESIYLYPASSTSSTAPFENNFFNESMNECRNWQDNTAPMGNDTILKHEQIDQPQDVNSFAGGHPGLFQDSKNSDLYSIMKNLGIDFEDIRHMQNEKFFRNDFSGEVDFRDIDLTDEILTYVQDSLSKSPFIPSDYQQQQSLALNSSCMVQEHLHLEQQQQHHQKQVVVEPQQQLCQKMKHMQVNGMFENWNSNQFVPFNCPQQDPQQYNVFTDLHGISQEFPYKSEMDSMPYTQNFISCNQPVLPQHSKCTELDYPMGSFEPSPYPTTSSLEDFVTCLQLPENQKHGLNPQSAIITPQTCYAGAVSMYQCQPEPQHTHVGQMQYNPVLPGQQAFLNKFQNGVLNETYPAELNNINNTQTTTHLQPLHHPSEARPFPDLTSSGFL

[1] = tested on: primary human AML specimens; experiment: Validation: 7-day serum-free culture of diverse AML specimens (CD34+CD15− cells); type: cell-based; conditions: for impact on CD34+CD15− cell numbers: vs DMSO, P<0.0001 paired t-test; for median CD34+CD15− percentage relative to uncultured cells: SR1 0.75-1 μM, C05 2 μM, DMSO 19% / 22%; for preventing AML cell differentiation in vitro, compound alone: 17 AML specimens, UM729 1 μM
Procedure: The following flow cytometry-antibodies were used: […] Statistical analyses of all in vitro experiments were done using Graphpad Prism v 6.01. […] Normalized CD34^+CD15^- percentages (td7/t0) were analyzed by Wilcoxon matched pairs signed rank test. Bars and error bars represent means and standard deviations (SD), or standard errors of the mean (SEM), as specified. Extreme limiting dilution analysis software (Hu, […]: extreme limiting dilution analysis for comparing depleted and enriched populations in stem cell and other assays. Journal of immunological methods 347, 70-78 (2009); http://bioinf.wehi.edu.au/software/elda/) was used to estimate LSC frequencies with 95% confidence intervals. In cases where all mice were positive or negative, one-sided confidence intervals were calculated. Differences in LSC frequencies between culture conditions were analyzed by Chi-square test.

[2] = tested on: AhR target genes CYP1A1, CYP1B1 and AHRR; experiment: AhR target gene expression by q-RT-PCR in AML cells; type: cell-based, human; conditions: for upregulation of AhR target genes AHRR and CYP1A1 upon 24 h in vitro culture: SR1 500 nM, TCDD 0.1, 1, 10 nM, n=13 samples
Description: RNA was isolated from primary AML samples using Trizol® reagent according to the manufacturer's instructions (Invitrogen/Life Technologies) and reverse transcribed into cDNA using MMLV reverse transcriptase and random primers. 2× Fast Master Mix® containing primers described below and probes from the Universal Probe Library® (Roche Diagnostics) were used for q-RT-PCR reactions which were amplified in 2-3 technical replicates on an ABI 7900HT Fast Real-Time® PCR System (Applied Biosystems/Life Technologies). Analysis was done with SDS 2.2.2 software (Applied Biosystems/Life Technologies) using the comparative delta CT method with GAPDH as reference gene. The following primers and probes were used: GAPDH: 5′-[…]-3′ (forward, SEQ ID NO:7), 5′-[…]-3′ (reverse, SEQ ID NO:8), probe 60, CYP1A1: 5′-[…]-3′ (forward, SEQ ID NO:9), 5′-[…]-3′ (reverse, SEQ ID NO:10), probe 59, CYP1B1: 5′-[…]-3′ (forward, SEQ ID NO:11), 5′-[…]-3′ (reverse, SEQ ID NO:12), probe 20, AHRR: 5′-[…]-3′ (forward, SEQ ID NO:13), 5′-[…]-3′ (reverse, SEQ ID NO:14), probe 72, AHR: 5′-[…]-3′ (forward, SEQ ID NO:15), 5′-[…]-3′ (reverse, SEQ ID NO:16), probe 33.

AML cells (04H112) = experiment: Cell proliferation assay (CellTrace Violet); type: cell-based, human; conditions: 4-day culture; SR1 500 nM, UM729 1 μM
Procedure: CellTrace™ Violet (Invitrogen/Life Technologies C34557) was added at a final concentration of 3 μM to cell suspensions (10^7 cells/ml) containing SR1 (500 nM), UM729 (1 μM), both compounds, or vehicle DMSO (0.1%). CellTrace™ Violet labeled cells were stained with surface antibodies against human CD3, CD19, CD34, and CD33 on day 0, day 2, and day 4 prior to analysis on a BD Canto™ II flow cytometer. Data were analyzed using FlowJo™ version 7.6.5.

[3] = tested on: leukemia stem cells (LSC) of primary human AML samples; experiment: Xenotransplantation of 4-day cultured AML cells into NSG mice (engraftment, LSC frequency); type: in vivo
Description: NOD.Cg-Prkdc^scid II2rg^tm1Wjl/SzJ (NSG) mice were purchased from Jackson Laboratory® (Bar Harbor, Me.) and bred in a pathogen-free animal facility. All AML samples were transplanted via the tail vein into 8-12 week old sublethally irradiated (250 cGy, ^137Cs-gamma source) NSG mice. […] On day 4, equivalents of the three highest to cell doses from each of the 3-4 flasks per condition were transplanted. The technician injecting fresh and cultured cells in NSG mice was not informed about the experimental conditions. […] On average 150,000 gated events were acquired. Mice were considered positive if human cells represented >1% of the bone marrow cell population. Mice were excluded only in case of obvious non-leukemia related death (e.g. first two weeks after irradiation). To discriminate between engraftment of leukemic and normal cells present in unsorted patient samples only recipients with proportions of CD45^+CD33^+ or CD45^+CD34^+ cells higher than proportions of CD19^+CD33^- or CD3^+ were considered to harbor cells of leukemic origin. Statistical analyses of all in vitro experiments were done using Graphpad Prism v 6.01. […] Normalized CD34^+CD15^- percentages (td7/t0) were analyzed by Wilcoxon matched pairs signed rank test. Bars and error bars represent means and standard deviations (SD), or standard errors of the mean (SEM), as specified. Extreme limiting dilution analysis software (Hu, […]: extreme limiting dilution analysis for comparing depleted and enriched populations in stem cell and other assays. Journal of immunological methods 347, 70-78 (2009); http://bioinf.wehi.edu.au/software/elda/) was used to estimate LSC frequencies with 95% confidence intervals. In cases where all mice were positive or negative, one-sided confidence intervals were calculated. Differences in LSC frequencies between culture conditions were analyzed by Chi-square test.

AML cells = experiment: Morphology analysis (cytospins, Wright stain); type: cell-based, human; conditions: 4-day culture; SR1 500 nM, UM729 1 μM
Procedure: 2-4×10^5 fresh and cultured cells were centrifuged onto cytospin slides, stained with Wright stain solution for 10 minutes and washed with PBS and water prior to analysis. Pictures of cytospins were taken with a Canon® EOS 5D camera connected to a Zeiss® Axio Imager microscope (40× objective).

primary human AML cells [4] = experiment: Secondary screen: dose response, five serial dilutions (CD34/CD15 flow cytometry); type: cell-based; design: key to 2ndary screen criteria fulfilled: 0 = no; 1 = yes; conditions: for % increase CD34+CD15− (%) 2ndary screen / % increase CD34+CD15− (cell counts) 2ndary screen: at optimal concentration, compared to DMSO; for 2ndary screen criteria fulfilled: ≧50% increase CD34+CD15− (%) and cell counts and ≧50% gated cells in at least one dose
Procedure: In the primary screen cells were plated in transparent 384-wellplates (Greiner, 781182) at a density of 5,000 cells in 50 μl final volume per well. Compounds were tested at 2 μM (commercial libraries) or 1 μg/ml (Medicinal Chemistry Facility, IRIC). […] For validation experiments AML cells were grown in 384-well plates with 3-8 replicates per condition.
Flow cytometry was performed on an LSR™ II cytometer equipped with an HTS-device (BD Bioscience, Primary and Secondary screens and in vitro validation experiments) or on a BD Canto™ II cytometer (BD Bioscience, Xenotransplantation and CellTrace Violet™ experiments). Cells were stained for 30 minutes at 4° C. protected from light if not otherwise indicated (CellTrace Violet™ staining). The following flow cytometry-antibodies were used: CD45 Pacific Blue (BioLegend 304029), CD33 PE (BD Bioscience 555450), CD34 APC (BD Bioscience 555824), CD3 FITC (BD Bioscience 555332), CD19 PE-Cy7 (BD Bioscience 557835), CD15 PE (BD Bioscience 555401), and anti-mouse CD45.1 APC-efluor 730 (eBioscience 47-0453-82). CD34 intensities in flow cytometry plots were set at high levels on day 0 to allow tracing of non-predictable decreases of intensities during 7 days in culture.

primary human AML cells [5] = experiment: Primary screen: differentiation of primary human AML cells in vitro (CD34/CD15, HTS flow cytometry); conditions: for percent gated cells (viability): 2 μM (commercial libraries) or 1 μg/ml (IRIC); for % increase CD34+CD15− (%): compared to DMSO ((compound − DMSO)/DMSO*100)
Procedure: AML cells were thawed in 37° C. water bath and 1:10 diluted in prewarmed Iscove's modified Dulbecco's medium (IMDM) containing 20% FBS and DNase 100 μg/ml. […] When compounds were added to the culture medium, final DMSO concentrations were 0.1% in all in vitro experiments and 0.01% when cultured cells were transplanted into NSG-mice.
Compounds were tested at 2 μM (commercial libraries) or 1 μg/ml (Medicinal Chemistry Facility, IRIC). […] For validation experiments AML cells were grown in 384-well plates with 3-8 replicates per condition.
Flow cytometry was performed on an LSR™ II cytometer equipped with an HTS-device (BD Bioscience, Primary and Secondary screens and in vitro validation experiments) or on a BD Canto™ II cytometer (BD Bioscience, Xenotransplantation and CellTrace Violet™ experiments). Cells were stained for 30 minutes at 4° C. protected from light if not otherwise indicated (CellTrace Violet™ staining). […] CD34 intensities in flow cytometry plots were set at high levels on day 0 to allow tracing of non-predictable decreases of intensities during 7 days in culture.

AML 05H163 cells = experiment: 5-day culture of AML 05H163 with AhR suppressors plus UM729; type: cell-based, human; conditions: 05H163, 5 days
Procedure: AML cells were thawed in 37° C. water bath and 1:10 diluted in prewarmed Iscove's modified Dulbecco's medium (IMDM) containing 20% FBS and DNase 100 μg/ml. Cells were cultured in IMDM supplemented with 15% BIT (bovine serum albumin, insulin, transferrin, Stem Cell Technologies #09500), SCF 100 ng/ml (Shenandoah #100-04), FLT3L 50 ng/ml (Shenandoah #100-21), II-3 20 ng/ml (Shenandoah #100-80), G-CSF 20 ng/ml (Shenandoah #100-72), β-mercaptoethanol (10^−4M), gentamicin (50 μg/ml) and ciprofloxacin (10 μg/ml). […] When compounds were added to the culture medium, final DMSO concentrations were 0.1% in all in vitro experiments and 0.01% when cultured cells were transplanted into NSG-mice.
Flow cytometry was performed on an LSR™ II cytometer equipped with an HTS-device (BD Bioscience, Primary and Secondary screens and in vitro validation experiments) or on a BD Canto™ II cytometer (BD Bioscience, Xenotransplantation and CellTrace Violet™ experiments). Cells were stained for 30 minutes at 4° C. protected from light if not otherwise indicated (CellTrace Violet™ staining). The following flow cytometry-antibodies were used: CD45 Pacific Blue (BioLegend 304029), CD33 PE (BD Bioscience 555450), CD34 APC (BD Bioscience 555824), CD3 FITC (BD Bioscience 555332), CD19 PE-Cy7 (BD Bioscience 557835), CD15 PE (BD Bioscience 555401), and anti-mouse CD45.1 APC-efluor 730 (eBioscience 47-0453-82). […]

| Structure (SMILES) | impact on CD34+CD15− cell numbers ([1]; 7-day culture) | median CD34+CD15− percentage relative to uncultured cells ([1]; 7-day culture) | preventing AML cell differentiation in vitro, compound alone ([1]; 7-day culture) | upregulation of AhR target genes AHRR and CYP1A1 upon 24 h in vitro culture [2] | distribution of cell generations / number of early cell divisions (AML cells (04H112)) | % increase CD34+CD15− (%) 2ndary screen (primary human AML cells [4]) | % increase CD34+CD15− (cell counts) 2ndary screen (primary human AML cells [4]) | 2ndary screen criteria fulfilled (primary human AML cells [4]) | percent gated cells (viability) (primary human AML cells [5]) | % increase CD34+ (cell counts) (primary human AML cells [5]; compared to DMSO) | % increase CD34+CD15− (cell counts) (primary human AML cells [5]; compared to DMSO) | % increase CD34+CD15− (%) (primary human AML cells [5]) | also measured |
| --- | --- | --- | --- | --- | --- | --- | --- | --- | --- | --- | --- | --- | --- |
| Cc1cc(C)c(/C=C2\C(=O)Nc3ccccc32)[nH]1 [SU5416, 3-(3,5-dimethyl-1H-pyrrol-2-ylmethylene)-1,3-dihydro-indole-2-one] |  |  |  |  |  |  |  |  |  |  |  |  | activation of the human AHR (human AHR): potency approaching TCDD |
| CC(C)n1cnc2c(NCCc3ccc(O)cc3)nc(-c3csc4ccccc34)nc21 [SR1, StemRegenin 1] | significant impact | 72% | superior to UM729 | effectively antagonized | no difference |  |  |  |  |  |  |  | samples with net expansion of CD34+CD15− cells ([1]; 7-day culture, compared to input): 15/16; increase in CD34+CD15− cell numbers ([1]; 7-day culture, maximum (AML 08H112)): up to 42 fold; total viable cells per flask (median±SD) following 4-day culture ([3]; cultures before transplantation, DMSO 6.2±3×10^6): 4.8±2×10^6; engraftment (average) ([3]; sample 05H163, progeny of 2×10^6 input cells, SR1-supplemented culture): 50%; supporting LSC functional activity, SR1 alone versus UM729 alone ([3]; six samples, engraftment in NSG mice): superior to UM729 in supporting LSC functional activity in four of six samples; also recorded: equally efficacious in two samples; engraftment levels compared to control DMSO ([3]; six samples, 4-day culture with SR1 0.5-1 μM, NSG mice): higher engraftment levels |
| COC(=O)c1ccc2c(c1)[nH]c1ncnc(NCCCN3CCCCC3)c12 [UM0125729, methyl 4-((3-(piperidin-1-yl)propyl)amino)-9H-pyrimido[4,5-b]indole-7-carboxylate] |  |  | most samples responded |  | did not affect | 205.07% | 206.53% | 1 | 78.40% | 26.44% | 63.00% | 47.24% | effect of adding UM729 to AhR suppressor-supplemented cultures ([1]; 7-day culture, CD34+CD15− percentage): enhanced the effect of SR1 in all specimens; CD34+CD38− and CD34+CD38+ compartments, SR1 and UM729 compared to DMSO ([1]; 7 days in culture): benefitted; typical morphologic signs of differentiation on cytospins (AML cells): rarely seen; effect on AhR target genes (CYP1A1, CYP1B1, AHRR) expression ([2]; 24 h incubation, compared to DMSO, GAPDH control): no effect; effect of adding UM729 to SR1- (or C05-) supplemented cultures on engraftment ([3]; 4-day culture, NSG mice, most samples): increased engraftment levels, but not LSC frequency; absolute numbers of CD34+CD15− cells, UM729 added compared to AhR suppressors alone (AML 05H163 cells): higher |
| CNC(=O)c1cc2c(cn1)[nH]c1ccccc12 [UM0119840, N-Methyl-beta-carboline-3-carboxamide] | significant impact | 56% |  |  |  | 172.95% | 252.10% | 1 | 86.20% | 37.57% | 85.11% | 76.94% | CD34+CD15− cell counts in secondary screenings (ranking) (primary human AML cells [4]; in words): highest; % increase CD34+ (%) (primary human AML cells [5]; compared to DMSO): 31.60% |
| Clc1cc2c(cc1Cl)Oc1cc(Cl)c(Cl)cc1O2 [TCDD, 2,3,7,8-Tetrachlorodibenzodioxin] |  |  |  | marginally further induced |  |  |  |  |  |  |  |  |  |
